Measurements taken from patent US20250114312A1, “TREATMENT OF COPPER DISORDERS” (PhilERA New Zealand Ltd., priority 2021, published 2025).
Blank lines part the entries; values can stand above or below the molecule they belong to.

Experiments:
Caco-2 barrier model = test: Permeability in Caco-2 barrier model; settings: for Papp, B-A direction: compound alone
Protocol: (§1) Digoxin was used as marker to check for Pgp activity in the cultures. […] Samples were recovered from receptor compartments after 0, 15, 30, 45, 60, and 120 minutes, and further analyzed by liquid scintillation counting. Samples were also recovered a time 0 and 120 minutes from the donor compartments for mass balance evaluation. Each condition was performed in 3 replicated transwell filters in the presence of the Caco-2 barrier.

[1] = human, in vivo
urinary copper excretion = settings: in vivo
Pgp = Pgp (Homo sapiens, UniProt P08183); settings: Caco-2
[2] = Permeability in Caco-2 barrier model; settings: human, Caco-2, pH 7.4
Protocol: as §1

[3] = in-life phase, albino and pigmented rats, 10 mg/kg oral

Chain of Pgp (P08183 whole entry): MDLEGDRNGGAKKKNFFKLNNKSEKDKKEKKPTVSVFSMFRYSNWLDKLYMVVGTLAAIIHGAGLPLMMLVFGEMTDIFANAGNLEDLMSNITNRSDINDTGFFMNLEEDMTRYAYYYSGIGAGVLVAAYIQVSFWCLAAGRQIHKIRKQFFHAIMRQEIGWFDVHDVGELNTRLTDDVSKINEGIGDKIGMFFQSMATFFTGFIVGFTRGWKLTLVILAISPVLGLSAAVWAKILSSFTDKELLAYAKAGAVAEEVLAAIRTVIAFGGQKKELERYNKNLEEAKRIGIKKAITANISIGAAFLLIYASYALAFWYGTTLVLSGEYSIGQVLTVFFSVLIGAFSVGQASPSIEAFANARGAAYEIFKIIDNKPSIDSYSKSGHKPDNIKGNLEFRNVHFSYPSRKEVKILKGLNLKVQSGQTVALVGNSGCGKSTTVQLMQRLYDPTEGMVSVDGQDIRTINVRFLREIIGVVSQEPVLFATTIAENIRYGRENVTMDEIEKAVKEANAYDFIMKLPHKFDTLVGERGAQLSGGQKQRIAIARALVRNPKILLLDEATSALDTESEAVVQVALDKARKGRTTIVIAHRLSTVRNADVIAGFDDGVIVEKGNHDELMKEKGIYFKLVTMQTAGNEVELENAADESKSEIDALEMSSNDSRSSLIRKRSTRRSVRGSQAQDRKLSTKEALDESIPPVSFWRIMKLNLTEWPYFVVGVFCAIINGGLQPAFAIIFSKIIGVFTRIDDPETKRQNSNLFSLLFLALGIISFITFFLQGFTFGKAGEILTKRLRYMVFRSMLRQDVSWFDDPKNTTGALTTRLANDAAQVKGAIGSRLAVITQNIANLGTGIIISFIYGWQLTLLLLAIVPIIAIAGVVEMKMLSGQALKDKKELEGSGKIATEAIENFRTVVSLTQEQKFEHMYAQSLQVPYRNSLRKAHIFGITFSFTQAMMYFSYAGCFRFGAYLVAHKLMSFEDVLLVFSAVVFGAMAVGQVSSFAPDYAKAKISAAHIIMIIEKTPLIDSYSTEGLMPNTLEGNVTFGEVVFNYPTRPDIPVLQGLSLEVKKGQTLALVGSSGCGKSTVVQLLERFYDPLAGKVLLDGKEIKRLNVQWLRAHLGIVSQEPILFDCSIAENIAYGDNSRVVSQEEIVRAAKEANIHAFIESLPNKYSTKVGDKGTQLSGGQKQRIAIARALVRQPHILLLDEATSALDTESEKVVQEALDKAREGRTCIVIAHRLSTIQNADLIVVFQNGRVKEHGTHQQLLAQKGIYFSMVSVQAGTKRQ

Molecule: NCCNCCNCCN.O=C(O)CCC(=O)O.O=C(O)CCC(=O)O [PX811019, triethylenetetramine disuccinate]
Papp, B-A direction (Caco-2 barrier model; disuccinate): No permeability was observed
Predicted absorption in humans (Caco-2 barrier model; estimated from in vitro Papp value): approximately 70%
MAT t½ ([1]; po): 15.8239 h
Difference in urinary excretion of copper due to formulation (urinary copper excretion): no clear difference
Level of cupriuresis versus dose (urinary copper excretion; po): approximately the same at 435 and 1305 mg PX811019 and increased at the highest dose of 2175 mg
DAT t½ Predicted (human, in vivo, po): 0.390 h
Pgp substrate (Pgp): would not be a Pgp substrate

Molecule: C[C@H]1O[C@@H](O[C@H]2[C@@H](O)C[C@H](O[C@H]3[C@@H](O)C[C@H](O[C@H]4CC[C@@]5(C)[C@H](CC[C@@H]6[C@@H]5C[C@@H](O)[C@]5(C)[C@@H](C7=CC(=O)OC7)CC[C@]65O)C4)O[C@@H]3C)O[C@@H]2C)C[C@H](O)[C@@H]1O [Digoxin]
Papp A→B at 1 h, 0.02 mM [2]: 0.75 ×10⁻⁶ cm/s
Asymmetry Index (Caco-2 barrier model; B-A/A-B): 8.06
Papp, B-A direction (Caco-2 barrier model): 6.08 ×10⁻⁶ cm/s

Molecule: CC(=O)NCCNCCNCCNC(C)=O [DAT, N1,N10-diacetyltriethylenetetramine]
Median Tmax of DAT [1]: 5.0 to 6.0 h
θ-VP,D/F/frM/frD Apparent volume for DAT (human, in vivo): 197 L

Molecule: NCCNCCNCCN [TETA, Triethylenetetramine, reference compound]
Increase of VT,T/F for every 100 mg difference from the 750 mg dose (human, in vivo): 6.37%
Inter-occasion variability of F (human, in vivo): 43.7 (17.3) [5.5] %
Inter-occasion variability of ka (human, in vivo): 69.4 (57.6) [16.3] %
Slope (SL) of copper excretion versus TETA concentration (in vivo): 41.8 (mg/L)^−1
θ-SL · ER0 Slope between TETA and Cu excretion rate (population mean): 24.3 (mg/L)^−1 · (μg/h)

θ-MTT Mean transit time for MAT formation (human, in vivo): 0.381 h
θ-VP,M/F/frM Apparent volume for MAT (human, in vivo): 426 L
Molecule: CC(=O)NCCNCCNCCN [MAT, N1-acetyltriethylenetetramine]

Molecule: NCCNCCNCCN.O=C(O)CCC(=O)O.O=C(O)CCC(=O)O
Animal observations attributable to administration [3]: No animal observations

Papp of barrier quality markers (Caco-2 barrier model; Caco-2): lower than 1×10^−6 cm/s
Molecule: Lucifer yellow
